The text below walks through data of publication PMC7672424 (Nucleic Acids Research, 2020).

The subject of assay [1] is 19AT (DNA, duplex) ACGTCGATTATAGACGAGC/GCTCGTCTATAATCGACGT
Nature of the assay: CD melting. To be noted: 50 mM K+; 10 mM Tris-HCl pH 7.4; 5 µM DNA, 20 µM compound.

The next assay relates to TBA. Put plainly: CD melting, DNA stabilization. The format is binding. The following applies: 5 µM DNA, 20 µM BMPQ-1, 10 mM Tris-HCl, 50 mM KCl, pH 7.4.
Another assay has as its system HepG2. Put plainly: Cell cytotoxicity assay (CCK8). The format is cell-based, human. The following applies: Homo sapiens, HepG2; CCK8, 48 h treatment. Here is the method:
(§1) The cell growth effect of BMPQ-1 against different cell lines were tested via measuring the quantity of living cells using the Cell Counting Kit-8 (CCK8) (DOJINDO, Japan) according to the instruction. Cells were seeded in a 96-well plate (5 × 10^3 cells/well) and grown for 24 h for attachment. Then the cells were treated with various concentrations of BMPQ-1 and incubated at 37°C with 5% CO2 for 48 h. After incubation, the old medium was discarded followed by adding fresh medium containing 10% FBS in DMEM. Then 100 μl CCK-8 (10% in grow medium) was added into each well, and the cells were further incubated for 1 h. The optical density (OD) was detected at 450 nm by an automated microplate reader (Bio-Rad). The IC50 values were derived from the curves of the mean percentage of survival against the drug concentration. All the experiments were performed in triplicate.
(§2) A Cell Counting Kit-8 (CCK8) (DOJINDO, Japan) was employed to evaluate the cytotoxicity of BMPQ-1 on human alveolar basal epithelial cancer cell line (A549), human hepatocellular carcinoma cancer cell line (HepG2), human gastric cancer cell line (MGC-803), human colon adenocarcinoma (HT29), human normal liver Cells (HL-7702).

The next assay deals with MGC-803. Nature of the assay: Cell cytotoxicity assay (CCK8). The format is cell-based, human. The following applies: Homo sapiens, MGC-803; CCK8, 48 h treatment. The procedure:
as §1, §2

Assay [2] has as its system monomeric G-quadruplexes (TBA, c-KIT1, c-KIT2, c-MYC Pu22, VEGF, TTA), duplex (19AT), single strand (dT30). Nature of the assay: Fluorescence response of BMPQ-1 to DNA. In kind it is binding. The following applies: 3 μM BMPQ-1, 4 μM other DNAs, λex = 395 nm. The procedure:
Figure 1. (A) Structure of BMPQ-1. (B) Fluorescence spectra of BMPQ-1 at λex = 395 nm in the absence or presence of dimeric G-quadruplexes (TTA45), monomeric G-quadruplexes (c-KIT1, c-KIT2, c-MYCPu22, TTA, VEGF, TBA), trinucleotide DNA (CGG12), duplex DNA (19AT) and single-stranded DNA (dT30). The concentration of BMPQ-1 was 3 μM. The concentration of TTA45 was 2 μM and DNAs with other structures were 4 μM. (C) Fluorescence spectra of 6 μM BMPQ-1 at λex = 395 nm in the absence or presence of 2 μM telomeric G-quadruplexes. Oligonucleotide samples were prepared in solution with 10 mM K2HPO4/KH2PO4, pH 7.0, 100 mM KCl. (D) Effect of BMPQ-1 on the CD spectra of 10 μM TTA45 in 10 mM Tris-HCl buffer (pH 7.4) containing 100 mM KCl.
G-quadruplex forming oligonucleotides were annealed in the buffer (10 mM K2HPO4/KH2PO4 pH 7.0, 100 mM KCl) by heating to 95°C for 5 min, followed by gradual cooling to room temperature. Fluorescence spectra were detected by RF-5301PC spectrofluorophotometer (Shimadzu, Japan) at room temperature. The spectra were recorded with 5 nm excitation and emission slit widths. […] For the fluorescence measurements between BMPQ-1 and different DNA sequences, the final concentrations of multimeric G-quadruplex forming oligonucleotides were 2 μM and other DNA oligonucleotides were 4 μM.

Assay [3] deals with BG4 foci (DNA G-quadruplexes) in A549 cells. Put plainly: Immunofluorescence of BG4 and TRF2 foci. The following applies: A549, 1.5 μM, 24 h. The format is cell-based, human. The procedure:
The cells (5 × 10^4 cells) were seeded on 35-mm glass-bottomed dishes and grown for 24 h for attachment. Then old medium was replaced by fresh DMEM containing 1.5 μM BMPQ-1 and incubated for 24 h. After washed three times with PBS buffer, the cells were fixed in 4% paraformaldehyde/PBS for 15 min and then permeabilized with 0.3% Triton-X 100/PBS at 37°C for 20 min. Then the cells were blocked with 5% BSA/PBS at 37°C for 1 h. Finally, the cells were incubated with primary antibodies at 37°C for 3 h. After that, the cells were washed six times with blocking buffer, and were then incubated with secondary antibodies at 37°C for 3 h. Finally, the cells were washed six times with PBS buffer again. The digital images were recorded using a confocal laser scanning microscopy (Olympus FV1000) and analyzed with ImageJ software. One hundred nuclei were counted in each group. […]
Figure 2. […] (B) Quantification of the number of γH2AX foci per nucleus in A549 cells treated with or without BMPQ-1. (C) Quantification of the colocalization of γH2AX and TRF2 per nucleus in A549 cells treated with or without BMPQ-1. […] (E) Quantification of the number of BG4 foci per nucleus in A549 cells treated with or without BMPQ-1. (F) Quantification of the colocalized BG4 and TRF2 per nucleus in A549 cells treated with or without BMPQ-1.

Assay [4] relates to TTA57/T5 (DNA, G4) GGGTTAGGGTTAGGGTTAGGGTTATTATTATTATTAGGGTTAGGGTTAGGGTTAGGG
Nature of the assay: fluorescence titration. To be noted: 100 mM K+ (KCl) plus potassium phosphate; 10 mM K2HPO4/KH2PO4 pH 7.0; 3 µM compound, DNA 0-10 µM; weaker than TTA45.

Each structure is given as a SMILES string.

With `Cc1ccc(Cn2cc3c(-c4ccc5c(c4)OCO5)nnc-3c3cc4c(cc32)OCO4)cc1` [BMPQ-1], the ΔTm in assay [1] worked out at 1.8 °C. In addition, in the assay on TBA, the “ΔTm (°C) TBA” value is 4.7 °C. In addition, in the assay on HepG2, 2140 ± 260 nM corresponded to half-maximal inhibition (IC50). Half-maximal inhibition in the assay on MGC-803 (IC50) was put at 2360 ± 480 nM. For the same molecule, the fluorescence enhancement result in assay [2] is listed as “less than 3 fold”. In assay [3], the “amount of BG4 foci in the nucleus” value is “significant increase”; the “amount of co-localized BG4 and TRF2 foci” value was “significantly increased”. Also, the binding entry in assay [4] is “yes”.

As a reminder, the ΔTm is the change in melting temperature against a reference sample. What is called IC50 is the concentration needed to halve the response being measured. Read a low IC50 as inhibition by little substance.
